For one series, the system named is H1975. The settings on record: read-out: H1975 Cell IC50; cited from earlier work.
In the next series the test system is hepatocytes. Briefly: Metabolite identification in hepatocytes, human. The class given is in vitro ADME. The settings on record: 10 μM, 240 min, formation of AZ5104 via de-alkylation on the indole ring. The method, then: Suspended hepatocytes in enough incubation medium to yield ˜1.5×10^6 cells/mL. Pipetted 199 μL of viable hepatocytes or the boiled hepatocytes into each wells of a 96-well non-coated plate. Placed the plate in the incubator on an orbital shaker to allow the hepatocytes to warm for 10 minutes. Pipetted 1 μL of the 2 mM test compound(s) into respective wells of the 96-well non-coated plate to start the reaction with final concentration of 10 μM. Returned the plate to the incubator and placed on an orbital shaker. Incubated at 37° C., 5% CO2 and 90-95% relative humidity with shaking at 500 rpm on the shaker for 240 min. After incubation, transferred media from each well to a tube containing 400 μL cold methanol, washed the well with 200 μL cold methanol and then transferred the media to the corresponding tube. Centrifuged tubes for 10 minutes at 16,000 g. Aliquots of 200 μL of the supernatants were mixed with 200 μL of pure water and used for LC-MS/MS analysis. UHPLC-MS/MS analysis was conducted using a Dionex UltiMate 3000 UHPLC system (Thermo Fisher Scientific, USA) and Thermo Scientific Q Exactive (Thermo Fisher Scientific, USA) fitted with a HESI probe. […]

The conditions of series [1]: observed with AZD9291 treatment; cited from earlier work.

SMILES strings stand for the structures.

As usually defined, the IC50 is the concentration that gives 50% inhibition. Consider `C=CC(=O)Nc1cc(Nc2nccc(-c3c[nH]c4ccccc34)n2)c(OC)cc1N(C)CCN(C)C` [AZ5104], for which the IC50 in the series with H1975 is 2 nM.

For `C=CC(=O)Nc1cc(Nc2nccc(-c3cn(C)c4ccccc34)n2)c(OC)cc1N(C)CCN(C)C` [AZD9291], the “Metabolite AZ5104, Human” value in the series with hepatocytes is reported as “Observed”. The IC50 in the series with H1975 is 15 nM. Moreover, in series [1], the “clinical side effect: diarrhea” value was 42% and the “clinical side effect: rash” value is 41%.

Values taken from patent US12049460B2, “EGFR inhibitor compounds” (Recurium IP Holdings, LLC, priority 2016, dated 2024).
